Patent US12077503B2, “Substituted cyclic amides and their use as herbicides” (FMC CORPORATION, priority 2015, dated 2024)

What was measured:
Format in all cases: in vivo
[1] = tested on: ragweed (common ragweed, Ambrosia elatior); assay: Test A postemergence; settings: Ambrosia artemisiifolia, post-emergence, 240 h; for pest or weed control at 125 g/ha: 125 g ai/ha, postemergence, visual injury on 0 to 100 scale (0 no effect, 100 complete control), approx. 10 d, read-out: Ragweed plant response rating; for pest or weed control at 31 g/ha: Postemergence, 31 g ai/ha, visual injury after approx. 10 d, 0 to 100 scale, 0 no effect, 100 complete control, read-out: Plant response rating, Ragweed
Outline: (§1)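 Treatment is preemergence as a directed soil spray after planting, or postemergence at the one- to two-leaf stage, with test chemical in a non-phytotoxic solvent mixture plus surfactant. Plants stay in the greenhouse about 10 d before visual injury scoring on a 0 to 100 scale versus untreated controls.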

[2] = tested on: Galium (catchweed bedstraw, Galium aparine); assay: Test A postemergence; settings: Galium, post-emergence, 240 h; for pest or weed control at 125 g/ha: 125 g ai/ha, postemergence, visual injury on 0 to 100 scale (0 no effect, 100 complete control), approx. 10 d, read-out: Galium plant response rating; for pest or weed control at 31 g/ha: Postemergence, 31 g ai/ha, visual injury after approx. 10 d, 0 to 100 scale, 0 no effect, 100 complete control, read-out: Plant response rating, Galium
Outline: as §1

[3] = tested on: ryegrass, Italian (Italian ryegrass, Lolium multiflorum); assay: Test A postemergence; settings: Lolium multiflorum, post-emergence, 240 h; for pest or weed control at 125 g/ha: 125 g ai/ha, postemergence, visual injury on 0 to 100 scale (0 no effect, 100 complete control), approx. 10 d, read-out: Ryegrass, Italian plant response rating; for pest or weed control at 31 g/ha: Postemergence, 31 g ai/ha, visual injury after approx. 10 d, 0 to 100 scale, 0 no effect, 100 complete control, read-out: Plant response rating, Ryegrass, Italian
Outline: as §1

corn (Zea mays) = assay: Test A postemergence; settings: Zea mays, post-emergence, 240 h; for plant injury at 125 g/ha: 125 g ai/ha, postemergence, visual injury on 0 to 100 scale (0 no effect, 100 complete control), approx. 10 d, read-out: Corn plant response rating; for Corn plant response rating (crop injury, 0 = no effect, 100 = complete kill) at 31 g/ha: Postemergence, 31 g ai/ha, visual injury after approx. 10 d, 0 to 100 scale, 100 complete control
Outline: as §1

[4] = tested on: giant foxtail (Setaria faberii); assay: Test A postemergence; settings: Setaria faberi, post-emergence, 240 h; for pest or weed control at 125 g/ha: 125 g ai/ha, postemergence, visual injury on 0 to 100 scale (0 no effect, 100 complete control), approx. 10 d, read-out: Foxtail, Giant plant response rating; for pest or weed control at 31 g/ha: Postemergence, 31 g ai/ha, visual injury after approx. 10 d, 0 to 100 scale, 0 no effect, 100 complete control, read-out: Plant response rating, Foxtail, Giant
Outline: as §1

Kochia (Kochia scoparia) [5] = assay: Test A postemergence; settings: Bassia scoparia, post-emergence, 240 h; for pest or weed control at 125 g/ha: 125 g ai/ha, postemergence, visual injury on 0 to 100 scale (0 no effect, 100 complete control), approx. 10 d, read-out: Kochia plant response rating; for pest or weed control at 31 g/ha: Postemergence, 31 g ai/ha, visual injury after approx. 10 d, 0 to 100 scale, 0 no effect, 100 complete control, read-out: Plant response rating, Kochia
Outline: as §1

[6] = tested on: pigweed (Amaranthus retroflexus); assay: Test A postemergence; settings: Amaranthus retroflexus, post-emergence, 240 h; for pest or weed control at 125 g/ha: 125 g ai/ha, postemergence, visual injury on 0 to 100 scale (0 no effect, 100 complete control), approx. 10 d, read-out: Pigweed plant response rating; for pest or weed control at 31 g/ha: Postemergence, 31 g ai/ha, visual injury after approx. 10 d, 0 to 100 scale, 0 no effect, 100 complete control, read-out: Plant response rating, Pigweed
Outline: as §1

[7] = tested on: wheat (Triticum aestivum); assay: Test A postemergence; settings: Triticum aestivum, post-emergence, 240 h; for plant injury at 125 g/ha: 125 g ai/ha, postemergence, visual injury on 0 to 100 scale (0 no effect, 100 complete control), approx. 10 d, read-out: Wheat plant response rating; for plant injury at 31 g/ha: Postemergence, 31 g ai/ha, visual injury after approx. 10 d, 0 to 100 scale, 0 no effect, 100 complete control, read-out: Plant response rating, Wheat
Outline: as §1

[8] = tested on: barnyardgrass (Echinochloa crus-galli); assay: Test A postemergence; settings: Echinochloa crus-galli, post-emergence, 240 h; for pest or weed control at 125 g/ha: 125 g ai/ha, postemergence, visual injury on 0 to 100 scale (0 no effect, 100 complete control), approx. 10 d, read-out: Barnyardgrass plant response rating; for pest or weed control at 31 g/ha: Postemergence, 31 g ai/ha, visual injury after approx. 10 d, 0 to 100 scale, 0 no effect, 100 complete control, read-out: Plant response rating, Barnyardgrass
Outline: as §1

[9] = tested on: blackgrass (Alopecurus myosuroides); assay: Test A postemergence; settings: Alopecurus myosuroides, post-emergence, 240 h; for pest or weed control at 125 g/ha: 125 g ai/ha, postemergence, visual injury on 0 to 100 scale (0 no effect, 100 complete control), approx. 10 d, read-out: Blackgrass plant response rating; for pest or weed control at 31 g/ha: Postemergence, 31 g ai/ha, visual injury after approx. 10 d, 0 to 100 scale, 0 no effect, 100 complete control, read-out: Plant response rating, Blackgrass
Outline: as §1

[10] = tested on: ragweed (common ragweed, Ambrosia elatior); assay: Test A preemergence; settings: Ambrosia artemisiifolia, pre-emergence, 240 h, 0 to 100 scale where 0 is no effect and 100 is complete control, read-out: Ragweed plant response rating; for pest or weed control at 31 g/ha: 31 g ai/ha, Preemergence; for pest or weed control at 125 g/ha: 125 g ai/ha, preemergence, approx. 10 d
Outline: as §1

[11] = tested on: ryegrass, Italian (Italian ryegrass, Lolium multiflorum); assay: Test A preemergence; settings: Lolium multiflorum, pre-emergence, 240 h, 0 to 100 scale where 0 is no effect and 100 is complete control, read-out: Ryegrass, Italian plant response rating; for pest or weed control at 31 g/ha: 31 g ai/ha, Preemergence; for pest or weed control at 125 g/ha: 125 g ai/ha, preemergence, approx. 10 d
Outline: as §1

[12] = tested on: giant foxtail (Setaria faberii); assay: Test A preemergence; settings: Setaria faberi, pre-emergence, 240 h, 0 to 100 scale where 0 is no effect and 100 is complete control, read-out: Foxtail, Giant plant response rating; for pest or weed control at 31 g/ha: 31 g ai/ha, Preemergence; for pest or weed control at 125 g/ha: 125 g ai/ha, preemergence, approx. 10 d
Outline: as §1

Kochia (Kochia scoparia) [13] = assay: Test A preemergence; settings: Bassia scoparia, pre-emergence, 240 h, 0 to 100 scale where 0 is no effect and 100 is complete control, read-out: Kochia plant response rating; for pest or weed control at 31 g/ha: 31 g ai/ha, Preemergence; for pest or weed control at 125 g/ha: 125 g ai/ha, preemergence, approx. 10 d
Outline: as §1

[14] = tested on: pigweed (Amaranthus retroflexus); assay: Test A preemergence; settings: Amaranthus retroflexus, pre-emergence, 240 h, 0 to 100 scale where 0 is no effect and 100 is complete control, read-out: Pigweed plant response rating; for pest or weed control at 31 g/ha: 31 g ai/ha, Preemergence; for pest or weed control at 125 g/ha: 125 g ai/ha, preemergence, approx. 10 d
[15] = tested on: barnyardgrass (Echinochloa crus-galli); assay: Test A preemergence; settings: Echinochloa crus-galli, pre-emergence, 240 h, 0 to 100 scale where 0 is no effect and 100 is complete control, read-out: Barnyardgrass plant response rating; for pest or weed control at 31 g/ha: 31 g ai/ha, Preemergence; for pest or weed control at 125 g/ha: 125 g ai/ha, preemergence, approx. 10 d
Outline: as §1

[16] = tested on: ducksalad (Heteranthera limosa); assay: Test B flooded paddy test; settings: Heteranthera limosa, 250 g ai/ha, Flood; 0 to 100 scale where 0 is no effect and 100 is complete control; read-out: Ducksalad plant response rating
Outline: (§2)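 Percent control, visually estimated after 13–15 d in the greenhouse on a 0–100 basis, compares treated pots with untreated ones; compound was put into paddy water 3 cm above the soil when plants had two leaves.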

[17] = tested on: sedge, umbrella (small-flower umbrella sedge, Cyperus difformis); assay: Test B flooded paddy test; settings: Cyperus difformis, 250 g ai/ha, Flood; 0 to 100 scale where 0 is no effect and 100 is complete control; read-out: Sedge, Umbrella plant response rating
Outline: as §2

rice (Oryra sativa) = assay: Test B flooded paddy test; settings: Oryza sativa, 250 g ai/ha, Flood; 0 to 100 scale where 0 is no effect and 100 is complete control; read-out: Rice plant response rating
Outline: as §2

[18] = tested on: barnyardgrass (Echinochloa crus-galli); assay: Test B flooded paddy test; settings: Echinochloa crus-galli, 250 g ai/ha, Flood; 0 to 100 scale where 0 is no effect and 100 is complete control; read-out: Barnyardgrass plant response rating
Outline: as §2

CN1C[C@H](c2csc3c2CCC3)[C@@H](C(=O)Nc2ccccc2S(C)(=O)=O)C1=O [Compound 1082]
pest or weed control at 125 g/ha [1]: 0%
pest or weed control at 31 g/ha [1]: 0%
pest or weed control at 125 g/ha [2]: 0%
pest or weed control at 31 g/ha [2]: 0%
pest or weed control at 125 g/ha [3]: 0%
pest or weed control at 31 g/ha [3]: 0%
plant injury at 125 g/ha (corn (Zea mays)): 30%
Corn plant response rating (crop injury, 0 = no effect, 100 = complete kill) at 31 g/ha (corn (Zea mays)): 0%
pest or weed control at 125 g/ha [4]: 0%
pest or weed control at 31 g/ha [4]: 0%
pest or weed control at 125 g/ha (Kochia (Kochia scoparia) [5]): 0%
pest or weed control at 31 g/ha (Kochia (Kochia scoparia) [5]): 0%
pest or weed control at 125 g/ha [6]: 0%
pest or weed control at 31 g/ha [6]: 0%
plant injury at 125 g/ha [7]: 0%
plant injury at 31 g/ha [7]: 0%
pest or weed control at 125 g/ha [8]: 30%
pest or weed control at 31 g/ha [8]: 0%
pest or weed control at 125 g/ha [9]: 0%
pest or weed control at 31 g/ha [9]: 0%
pest or weed control at 31 g/ha [10]: 0%
pest or weed control at 125 g/ha [10]: 0%
pest or weed control at 31 g/ha [11]: 0%
pest or weed control at 125 g/ha [11]: 0%
pest or weed control at 31 g/ha [12]: 0%
pest or weed control at 125 g/ha [12]: 0%
pest or weed control at 31 g/ha (Kochia (Kochia scoparia) [13]): 0%
pest or weed control at 125 g/ha (Kochia (Kochia scoparia) [13]): 0%
pest or weed control at 31 g/ha [14]: 0%
pest or weed control at 125 g/ha [14]: 0%
pest or weed control at 31 g/ha [15]: 0%
pest or weed control at 125 g/ha [15]: 0%
pest or weed control at 250 g/ha [16]: 70%
pest or weed control at 250 g/ha [17]: 0%
pest or weed control at 250 g/ha (rice (Oryra sativa)): 35%
pest or weed control at 250 g/ha [18]: 0%

C=C(C)c1cccc([C@H]2CN(C)C(=O)[C@@H]2C(=O)Nc2ccc(F)c(F)c2F)c1 [Compound 1087]
pest or weed control at 125 g/ha [1]: 0%
pest or weed control at 31 g/ha [1]: 0%
pest or weed control at 125 g/ha [2]: 70%
pest or weed control at 31 g/ha [2]: 30%
pest or weed control at 125 g/ha [3]: 0%
pest or weed control at 31 g/ha [3]: 0%
plant injury at 125 g/ha (corn (Zea mays)): 0%
Corn plant response rating (crop injury, 0 = no effect, 100 = complete kill) at 31 g/ha (corn (Zea mays)): 0%
pest or weed control at 125 g/ha [4]: 60%
pest or weed control at 31 g/ha [4]: 30%
pest or weed control at 125 g/ha (Kochia (Kochia scoparia) [5]): 20%
pest or weed control at 31 g/ha (Kochia (Kochia scoparia) [5]): 0%
pest or weed control at 125 g/ha [6]: 30%
pest or weed control at 31 g/ha [6]: 0%
plant injury at 125 g/ha [7]: 0%
plant injury at 31 g/ha [7]: 0%
pest or weed control at 125 g/ha [8]: 90%
pest or weed control at 31 g/ha [8]: 20%
pest or weed control at 125 g/ha [9]: 30%
pest or weed control at 31 g/ha [9]: 0%
pest or weed control at 31 g/ha [10]: 0%
pest or weed control at 125 g/ha [10]: 0%
pest or weed control at 31 g/ha [11]: 0%
pest or weed control at 125 g/ha [11]: 30%
pest or weed control at 31 g/ha [12]: 90%
pest or weed control at 125 g/ha [12]: 100%
pest or weed control at 31 g/ha (Kochia (Kochia scoparia) [13]): 0%
pest or weed control at 125 g/ha (Kochia (Kochia scoparia) [13]): 60%
pest or weed control at 31 g/ha [14]: 0%
pest or weed control at 125 g/ha [14]: 0%
pest or weed control at 31 g/ha [15]: 0%
pest or weed control at 125 g/ha [15]: 90%
pest or weed control at 250 g/ha [16]: 30%
pest or weed control at 250 g/ha [17]: 0%
pest or weed control at 250 g/ha (rice (Oryra sativa)): 25%
pest or weed control at 250 g/ha [18]: 70%
